Laboratory results: patent publication US20010014676A1, “Immunosuppressive compositions” (priority 1990, published 2001)

Tested on: Lewis-Brown Norway F1 Hybrid cardiac allografts in Lewis recipients
Assay: acute cardiac allograft rejection model (procedure of Kupiec-Weglinski)
Format: in vivo, rat
Conditions: for GRAFT SURVIVAL MEAN ± SD: N=7
Experimental: The therapeutic efficacy of a pharmaceutical composition of the invention was tested according to the procedure of Kupiec-Weglinski, J. W., et al., (1988) Transplant Proc. 20:207-216 (hereinafter “Kupiec-Weglinski”) to determine its in vivo potency as an acute transplantation/graft rejection modulator.
Briefly, to preform these experiments, the following protocol was employed. Male inbred adult rats (Lewis-Brown Norway F1 Hybrid rats, obtained from Harlan sprague—Dawley Inc., Indianapolis, Ind.) were used. Lewis-Brown Norway F1 Hybrid cardiac allografts were transplanted to the abdominal great vessels of Lewis recipients. The animals were administered compounds according to the following five distinct regimens.
Protocol I. Pretreatment Protocol—20 mg/kg/day of Compound A was administered orally for 7 consecutive days prior to transplantation (days −7 to −1).
Protocol II Treatment Protocol—20 mg/kg/day of Compound A was administered orally for 7 consecutive post-transplant days (days 0-6) followed by intermittent 5 day courses (days 9-13 and 16-20).
Protocol III Pretreatment and Treatment Protocol—20 mg/kg/day of Compound A was administered orally for 7 consecutive days prior to transplantation (days −7 to −1) followed by intermittent 5 day courses (days 9-13 and 16-20).
Ventricular contractions were assessed daily by palpation through the recipient flank. Rejection was defined as the day of cessation of myocardial contractions and confirmed histologically.

## CCCC1(CCC)CCC2(CCN(CCCN(C)C)C2)CC1 [Compound A, N,N-dimethyl-8,8-dipropyl-2-azaspiro [4,5]-decane-2-propanamine]
Compound A alone (pretreatment, treatment or pretreatment and treatment protocol), untreated average 7 days
  average graft survival time: 16 days
Protocol I pretreatment: Compound A 20 mg/kg/day orally, days -7 to -1
  GRAFT SURVIVAL MEAN ± SD: 14.7 ± 5.8 days
Protocol II treatment: Compound A 20 mg/kg/day orally, days 0-6, then days 9-13 and 16-20
  GRAFT SURVIVAL MEAN ± SD: 16.7 ± 2.0 days
Protocol III pretreatment and treatment: Compound A 20 mg/kg/day orally, days -7 to -1, then days 9-13 and 16-20
  GRAFT SURVIVAL MEAN ± SD: 16.0 ± 4.3 days
Combination protocol: Compound A 20 mg/kg/day orally plus cyclosporin A […] by injection, days 0-6
  graft survival time (transplants routinely retained): over 40 days
